For data set [1], the system named is formalin-induced tonic flinch responses. The conditions noted are these: rat, in vivo.
The subject of data set [2] is heart rate and arterial blood pressure. The note with it: rat, in vivo.
Data set [3] has as its system thermal (heat) response latencies. The note with it: rat, in vivo.
For the next data set, the system named is GI transit. The conditions noted are these: rat, in vivo.
In data set [4] the test system is formalin-induced tonic flinch responses. The conditions noted are these: rat, in vivo; cited from earlier work.

The text below walks through data of US10307463B2 (priority 2003, dated 2019).

As to `NCC(CC(=O)O)c1ccc(Cl)cc1` (stereo not drawn) [baclofen, γ-amino-β-(p-chlorophenyl) butyric acid], the “formalin-induced tonic (persistent) pain behavior” value (“formalin-induced tonic” below) in data set [1] is reported as “dose-dependent reductions”.
As for `CCCCN1CCCCC1C(=O)Nc1c(C)cccc1C` (stereo not drawn) [bupivacaine], in data set [1], the “formalin-induced tonic” value was “did not significantly inhibit” and the hindpaw paralysis entry is “immediate but transient hindpaw paralysis”.
Take `Clc1cccc(Cl)c1N=C1NCCN1` [clonidine, 2,6-dichloro-N-2-imidazolidinylidenebenzenamine]: the “formalin-induced tonic” value in data set [1] was “dose-dependently suppressed”. For the same compound, in data set [2], the heart rate result is recorded as “dose-dependent bradycardia”.
Regarding `CN1CC[C@]23c4c5ccc(O)c4OC2C(O)C=C[C@H]3[C@H]1C5` (stereo partly drawn) [morphine, 7,8-didehydro-4,5-epoxy-17-methylmorphinan-3,6-diol], in data set [3], the “development of tolerance to analgesic effects” value was “declined in magnitude” and the “thermal (heat) response latencies” value is “moderately antinociceptive”. The GI transit entry with GI transit is “dose-dependent inhibition”. The “tonic formalin-induced flinching behavior after six days infusion” value in data set [4] is on record as “significantly reduced”.
